These results are taken from PMC6942202 (Bioorganic & medicinal chemistry letters, 2019).

In assay [1] the target is T1, NgGCYH-IB (Neisseria gonorrhoeae, UniProt Q5F9K6). Nature of the assay: Inhibition of NgGCYH-IB enzyme activity. It is filed as biochemical, N. gonorrhoeae. The conditions noted are these: in words.
For the next assay, the target named is T2, HsGCYH-IA (Homo sapiens, UniProt P30793).
T2 sequence (P30793 43-250 limits assumed): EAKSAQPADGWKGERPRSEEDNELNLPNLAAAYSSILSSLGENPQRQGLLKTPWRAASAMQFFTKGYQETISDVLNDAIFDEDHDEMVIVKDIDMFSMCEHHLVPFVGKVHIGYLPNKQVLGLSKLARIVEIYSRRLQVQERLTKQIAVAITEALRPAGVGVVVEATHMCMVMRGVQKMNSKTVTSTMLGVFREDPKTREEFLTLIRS
The assay is described as follows: Steady-state kinetic analysis of HsGCYH-IA. In kind it is biochemical, H. sapiens. The settings on record: read-out: KM of HsGCYH-IA for GTP; fluorescence assay, GTP as substrate.

For assay [2], the target named is T1, NgGCYH-IB. The conditions noted are these: read-out: KM of NgGCYH-IB for GTP; cited from earlier work.

Molecules are shown by their SMILES.

T1 sequence (Q5F9K6 whole entry): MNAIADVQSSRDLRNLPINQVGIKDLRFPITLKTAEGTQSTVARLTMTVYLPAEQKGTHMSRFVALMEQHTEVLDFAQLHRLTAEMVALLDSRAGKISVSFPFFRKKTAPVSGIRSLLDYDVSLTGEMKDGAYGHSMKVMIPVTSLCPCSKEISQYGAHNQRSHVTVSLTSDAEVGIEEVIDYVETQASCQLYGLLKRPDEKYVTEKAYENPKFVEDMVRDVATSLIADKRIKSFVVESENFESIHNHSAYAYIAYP

As to `Nc1nc(OCCO)c2[nH]c(=O)n([C@@H]3O[C@H](CO)[C@@H](O)[C@H]3O)c2n1` [G1], the “Selectivity between HsGCYH-IA and NgGCYH-IB from IC50 values” on NgGCYH-IB [1] was “modest selectivity for HsGCYH-IA”.

Take `Nc1nc(OC[C@H](O)CO)c2[nH]c(=O)n([C@@H]3O[C@H](CO)[C@@H](O)[C@H]3O)c2n1` [G3]: at NgGCYH-IB [1], the “Selectivity between HsGCYH-IA and NgGCYH-IB from IC50 values” is listed as “three-fold more potent against NgGCYH-IB”. With `Nc1nc2c(ncn2[C@@H]2O[C@H](COP(=O)(O)OP(=O)(O)OP(=O)(O)O)[C@@H](O)[C@H]2O)c(=O)[nH]1` [GTP], the Km on HsGCYH-IA was 867 ± 57 µM; on NgGCYH-IB [2] it was 9 µM.
